One data set relates to longitudinal bone. Description: ex-vivo longitudinal bone culture, length measurement. It is filed as cell-based, C57BL/6 mice. Particulars: for length of the longitudinal bone increased more effectively than by comparative indirubin derivatives: versus Comparative Examples 8, 9 and 10-12; for increase of the length of the long bone relative to the control group: printed as about two times (180%). Here is the method:
Longitudinal bones were isolated from 15.5 embryonic day C57BL/6 mice and incubated for 7 days in a 24-well tissue culture dish. Medium was used as Minimal Essential Medim (α-MEM, Gibco) including 10% fetal bovine serum (FBS), 1 mM beta polyglycerol disodium phosphate, 50 ng/ml ascorbic acid, 0.3 g/L-glutamine, 0.2% BSA, 100 U/ml penicillin, 100 μg/ml streptomycin. After the longitudinal bone was separated from the mouse, the longitudinal bone isolated from the medium was incubated for 24 hours, and the drug was treated. The medium and the drug (here are Example 1, Example 2, Comparative Examples 1, 7-9 and indirubin derivatives of 10-12) were changed every other day. The length of the longitudinal bone was measured before and after treatment with the drug. The longitudinal bone tissue after drug treatment was marched with PBS and fixed using 4% formaldehyde.
In order to more precisely determine the effect of indirubin derivatives in Example 1 or Example 2 of the present invention and other indirubin derivatives on the culture of ex-vivo longintudinal bone, various indirubin derivatives (Examples 1 and 2 and comparison Example 1, 8, 9, 10-12 indirubin derivatives) were treated as in Experimental Method 6, and the length of the longitudinal bone was measured.
FIG. 1 is a photograph of the longitudinal bone cultured at each ex-vivo when treated with indirubin induction in Example 1, Example 2, and Comparison Example 1, 8, 9, 10-12. FIG. 2 is a graph and table showing the variation in the length of the longitudinal bone measured in FIG. 1. In this case, the drooping indirubin derivatives were identical at 0.5 μM and treated in culture medium for 6 days.
We sought to determine more accurately the effect of 6-bromoindirubin-3′-oxime (Comparative Example 6) on the culture of ex-vivo longitudinal bone. FIG. 3A is a photograph (left) of a longitudinal bone culture in ex-vivo and a graph showing the numerical value when treated with 6-bromoindirubin-3′-oxime of Comparative Example 6 (right). At that time, 0.5 μM 6-bromoindirubin-3′-oxime was treated in culture medium for 6 days. The control is longitudinal bone treated with DMSO solution instead of drug.

The test system of data set [1] is ALP (alkaline phosphatase). The experiment in a line: ALP activity assay in MC3T3-E1 cells. Particulars: for increase of ALP activity: MC3T3-E1 cells, differentiation medium, 48 hours, versus control. It is filed as cell-based, Mouse. The procedure: (§1) The MC3T3-E1 cell (Mouse osteoblastic cell line) was cultivated under conditions of 37° C. and 5% CO2 at the minimal essential media (α-MEM) (Gibco) containing 10% prenatal serum and 1% penicillin/streptomycin. For the test of differentiation induction, cells were cultivated in α-MEM mediums containing 50 μg/ml ascorbic acid and 100 mM β-glycerophosphate.
5×10^4 MC3T3-E1 cells were incubated on a 24 well plate for two days and stuck. After confirming that the cells reached 100% confluency, the medications (5,6-dichloroindirubin-3′-methoxime in Example 1) were treated in the differentiation medium for 48 hours. The cells were cleaned with a phosphoric acid buffer solution and the samples harvested were treated with a buffer solution (pH 10.3) containing 50 mM Tris-chloric acid, 100 mM glisin and p-nitro phenylpospate after cell lysis. For analysis, 3 M sodium hydroxide was treated, and absorbance was measured at 405 nm. The ALP activity was quantified by measuring the protein concentration using Bradford Analyzer.
ALP activity analysis was performed as Experimental Method 5 to determine the effect of 5,6-dichloroindirubin-3′-methoxime in Example 1 and 5-methoxylindirubin-3′-oxime in Example 2 on bone mineral density. FIG. 4 is a table showing the measured a graph showing ALP activity in cells and a table showing the degree of ALP activity in cells treated with 5,6-dichloroindirubin-3′-methoxime of Example 1 according to the present invention, 5-methoxylindirubin-3′-oxime of Example 2, indirubin derivatives of Comparative Examples 1-5 and 12. The control is the ALP activity in the cells prior to drug treatment.

Data set [2] relates to β-catenin. Description: Western blot for β-catenin stabilization in MC3T3-E1 cells. It is filed as cell-based, Mouse. Particulars: 24 hours treatment. Here is the method: as §1
For Western blot analysis, drugs (here are 5,6-dichloroindirubin-3′-methoxime, 5-methoxylindirubin-3′-oxime) were treated 24 hours, and MC3T3-E1 cells were cultured and harvested in a culture dish to reach 100% confluency. Harvested samples for immunoblot was performed to quantify the protein was after cell lysis, using SDA-PAGE gel using the antibody after electrophoresis.
FIG. 5 is the result of Western blot using MC3T3-E1 cells (osteoblast cells) to confirm the effects of 5,6-dichloroindirubin-3′-methoxime of Example 1 and 5-methoxyindirubin-3′-oxime of Example 2 on the stability of β-catenin.

The subject of data set [3] is β-catenin. Description: Immunocytochemistry of β-catenin expression and localization in ATDC5 cells. It is filed as cell-based, Murine. Particulars: 24 hours treatment, ICC. The procedure: (§2) The ATDC5 cell (Murine constant cell line) was cultured in the DMEM (Dulbecco's modified Eagle's medium, Gibco, Grand Island, N.Y.) containing 5% Fetal Bovine Serum (FBS) and 1% penicillin/streptomycin under conditions of 37° C. and 5% CO2.
Drugs (here are 5,6-dichloroindirubin-3′-methoxime, 5-methoxylindirubin-3′-oxime) were treated for 24 hours when the cells were securely attached to the cover glass that was placed in the 12 well plate at a density of 2.5×10^4 cells per well. Cells were cleaned with phosphoric acid buffer solution and fixed at room temperature for 20 minutes by adding 4% paraformaldehyde, and then a protein expressed in the cells was observed through the process of permeabilization, blocking and immunofluorescence.
FIG. 6 is a photograph confirming the β-catenin concentration in the ATDC5 cells treated with 5,6-dichloroindirubin-3′-methoxime of Example 1 and 5-methoxylindirubin-3′-oxime of Example 2 by immunocytochemistry. In other words, the expression and localization of β-catenin in ATDC5 cells were confirmed through ICC.

Data set [4] can be described thus: oral toxicity study in mouse. Particulars: in vivo. Here is the method:
When an indirubin derivative represented by Formula 1 (5,6-dichloroindirubin-3′-methoxime) and an indirubin derivative represented by Formula 2 (5-methoxylindirubin-3′-oxime) were orally administered to a mouse for toxicity studies, they are considered to be safe substances because the 50% lethal dose (LD 50) of them are at least 1,000 mg/kg.

The test system of data set [5] is osteoblasts and chondrocytes. Description: toxicity to osteoblasts and chondrocytes. It is filed as cell-based.
Data set [6] deals with ATDC5 cells (chondrocytes). The experiment in a line: MTT reduction analysis. It is filed as cell-based, Murine. Particulars: 24 hours treatment. The procedure:
as §2
When the cells were stably attached after 5×10^3 ATDC5 cells were stuck in 96 well plate, the drug (here is 6-bromoindirubin-3′-oxime) was treated. After 24 hours, transfer to a medium containing 100 μg/ml MTT [3-(4,5-dimethylthiazol-2-yl)-2,5-diphenyletrazoliumbromide)] and incubate the cells for 2 hours before removing the growth medium. The MTT, which was reduced to purple formazan, was dissolved with DMSO and then excreted at 540 nm by ab absorbance measurement.
FIG. 3B is a graph of MTT reduction analysis of chondrocytes after treatment of different concentration of 6-bromoindirubin-3′-oxime to confirm if the reduction in the length of longitudinal bone treated with 6-bromoindirubin-3′-oxime in Comparative Example 6 is related to the effect on the survival rate of chondrocytes.
MTT reduction assay is a method to measure the viability of cells by analyzing the difference in absorbance due to the reduction of yellow MTT to purple formazan caused by mitochondrial enzyme reaction in living cells.
(In general: Tetrazolium dyes change colour on reduction, which living cells bring about.)

Setting [7] is: 0.5 μM, 6 days in culture medium.

Read-outs that look alike come from different tables or passages of the source.

For `COc1ccc2c(c1)/C(=C1/Nc3ccccc3/C1=N\O)C(=O)N2` [Example 2, 5-methoxylindirubin-3′-oxime], in the data set on longitudinal bone (setting [7]), the “length of the longitudinal bone increased more effectively than by comparative indirubin derivatives” value is on record as “about 54%”. In the data set with longitudinal bone, the “increase of the length of the long bone relative to the control group” value was roughly 180%. Moreover, the “increase of ALP activity” value in data set [1] is on record as roughly 2 fold. In data set [1] (versus other indirubin derivatives, test not specified), the “effects on bone growth, bone thickness or both more significant than those of other indirubin derivatives” value is reported as “more than 30%”. Further, the “stabilization of β-catenin” value in the data set with β-catenin [2] is “significantly induced the stabilization of β-catenin”. For the same compound, the “movement of stabilized β-catenin into the nucleus” value in the data set on β-catenin [3] is “increase the mobility of the stabilized β-catenin into the nucleus”. This compound yielded an LD50 in data set [4] of no less than 1000 mg/kg. In data set [5], the “toxicity to osteoblasts and chondrocytes” value is given as “not toxic”.

In the case of `CO/N=C1/C(=C2/C(=O)Nc3cc(Cl)c(Cl)cc32)Nc2ccccc21` [Example 1, 5,6-dichloroindirubin-3′-methoxime], the “length of the longitudinal bone increased more effectively than by comparative indirubin derivatives” value in the data set with longitudinal bone (setting [7]) is “about 54%”. The “increase of the length of the long bone relative to the control group” value in the data set on longitudinal bone is roughly 180%. In addition, in data set [1], the “increase of ALP activity” value is recorded as roughly 2 fold. Besides, in the data set on β-catenin [2], the “stabilization of β-catenin” value was “significantly induced the stabilization of β-catenin”. Moreover, the “movement of stabilized β-catenin into the nucleus” value in the data set on β-catenin [3] is reported as “increase the mobility of the stabilized β-catenin into the nucleus”. Moreover, the LD50 in data set [4] (orally administered, read-out: 50% lethal dose (LD 50)) is no less than 1000 mg/kg. The “toxicity to osteoblasts and chondrocytes” value in data set [5] is reported as “not toxic”.

With `O=C1Nc2cc(Br)ccc2/C1=C1/Nc2ccccc2/C1=N\O` [Comparative Example 6, 6-bromoindirubin-3′-oxime], the “length of the ex-vivo longitudinal bone compared to control group” value in the data set with longitudinal bone (0.5 μM, 6 days in culture medium, control DMSO) was “reduced”. Further, the “survival rate of chondrocytes” value in data set [6] (5 μM) is “below 50%”. The “concentration at which growth of chondrocytes is inhibited” value in data set [6] was no less than 1 µM.

For the origin of these results see patent US11459311B2, “Pharmaceutical composition containing indirubin derivative as active ingredient” (CK Regeon Inc., priority 2017, dated 2022).
